From patent US20250136606A1, “MODULATORS OF TRPML, THEIR COMPOSITIONS AND METHODS OF USE” (Caraway Therapeutics, Inc., priority 2021, published 2025)
pEC50: −log10 of the molar value. Like-named read-outs stand apart in the source and are kept apart here.

Experiments:
Format in all cases: cell-based
TRPML1 = TRPML1 (Homo sapiens, UniProt Q9GZU1); assay: Fluorescent TRPML1 assay (Fluo4-AM calcium fluorescence in doxycycline-induced HEK-293 Trex cells)
How it was run: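 HEK-293 Trex cells stably carrying human TRPML1 (surface-trafficking mutant) were induced overnight with 0.5 ug/mL doxycycline, loaded with 1 micromolar Fluo4-AM, and suspended in Ringer's with 10 mM calcium. Compounds at 20 micromolar to 6 nanomolar final, half-log steps, triplicate; fluorescence 480/540 nm gave percent activity versus controls and EC50 by non-linear regression.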

TRPML2 = target: T1, TRPML2 (Homo sapiens, UniProt Q8IZK6); assay: Fluorescent TRPML2 assay (performed as for TRPML1, substituting the TRPML2 subtype)
T1 construct: expressed in transfected cells
T1 sequence (Q8IZK6 1-566): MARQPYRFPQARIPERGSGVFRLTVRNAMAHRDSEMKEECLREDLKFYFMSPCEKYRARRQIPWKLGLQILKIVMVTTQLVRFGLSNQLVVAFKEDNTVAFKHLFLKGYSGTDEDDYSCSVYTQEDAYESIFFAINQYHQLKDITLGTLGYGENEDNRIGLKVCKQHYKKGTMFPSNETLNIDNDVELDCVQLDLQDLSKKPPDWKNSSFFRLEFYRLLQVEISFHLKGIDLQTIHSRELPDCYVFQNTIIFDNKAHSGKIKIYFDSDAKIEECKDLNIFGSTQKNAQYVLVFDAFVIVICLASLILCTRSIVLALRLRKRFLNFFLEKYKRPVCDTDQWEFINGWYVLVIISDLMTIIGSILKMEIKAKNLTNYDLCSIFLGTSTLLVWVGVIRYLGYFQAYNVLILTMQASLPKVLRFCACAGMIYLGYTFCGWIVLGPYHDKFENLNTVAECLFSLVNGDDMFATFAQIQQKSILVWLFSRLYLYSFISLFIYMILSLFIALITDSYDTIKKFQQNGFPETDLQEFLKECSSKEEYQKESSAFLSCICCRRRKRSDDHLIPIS
How it was run: (§1)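 HEK-293 Trex cells with doxycycline-induced (0.5 ug/mL) surface-directed human TRPML subtype, loaded with 1 μM Fluo4-AM, resuspended in Ringer's with 10 mM calcium. Compounds at 20 μM to 6 nM final in half-log steps, triplicate; fluorescence ex 480/em 540; EC50 by non-linear regression versus plate controls.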

TRPML3 = target: T2, TRPML3 (Homo sapiens, UniProt Q8TDD5); assay: Fluorescent TRPML3 assay (performed as for TRPML1, substituting the TRPML3 subtype)
T2 construct: expressed in transfected cells
T2 sequence (Q8TDD5 1-553): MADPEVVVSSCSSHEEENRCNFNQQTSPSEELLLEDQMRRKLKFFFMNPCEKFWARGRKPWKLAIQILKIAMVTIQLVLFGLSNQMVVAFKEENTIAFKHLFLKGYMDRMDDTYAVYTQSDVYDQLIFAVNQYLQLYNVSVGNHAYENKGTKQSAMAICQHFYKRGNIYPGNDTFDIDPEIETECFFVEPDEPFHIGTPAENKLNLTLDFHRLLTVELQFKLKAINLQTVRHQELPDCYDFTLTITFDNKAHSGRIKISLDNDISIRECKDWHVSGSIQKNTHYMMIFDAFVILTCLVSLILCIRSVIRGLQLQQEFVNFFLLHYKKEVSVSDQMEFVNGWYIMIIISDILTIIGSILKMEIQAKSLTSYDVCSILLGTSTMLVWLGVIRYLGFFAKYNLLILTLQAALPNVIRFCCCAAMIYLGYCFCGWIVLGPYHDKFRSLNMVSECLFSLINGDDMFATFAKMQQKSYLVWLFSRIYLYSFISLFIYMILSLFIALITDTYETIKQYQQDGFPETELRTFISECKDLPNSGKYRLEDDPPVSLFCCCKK
How it was run: as §1

TRPML1, sequence (Q9GZU1 whole entry L15A/L16A/L577A/L578A, form open): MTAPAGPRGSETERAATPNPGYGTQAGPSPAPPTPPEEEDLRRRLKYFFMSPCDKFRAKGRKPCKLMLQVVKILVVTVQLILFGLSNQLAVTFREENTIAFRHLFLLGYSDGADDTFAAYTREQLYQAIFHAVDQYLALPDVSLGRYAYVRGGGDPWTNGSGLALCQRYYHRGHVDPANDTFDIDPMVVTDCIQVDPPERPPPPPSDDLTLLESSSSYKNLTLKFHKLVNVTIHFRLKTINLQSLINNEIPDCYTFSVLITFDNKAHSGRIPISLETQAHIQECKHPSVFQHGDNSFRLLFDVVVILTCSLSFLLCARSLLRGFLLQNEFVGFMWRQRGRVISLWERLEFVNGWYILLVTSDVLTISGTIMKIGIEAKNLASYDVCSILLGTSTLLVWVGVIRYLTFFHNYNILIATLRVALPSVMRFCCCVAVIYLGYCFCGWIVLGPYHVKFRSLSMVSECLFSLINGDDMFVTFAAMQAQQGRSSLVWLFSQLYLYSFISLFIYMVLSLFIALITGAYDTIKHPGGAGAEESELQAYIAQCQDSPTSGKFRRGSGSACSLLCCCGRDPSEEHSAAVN

| Compound | pEC50 (TRPML1; fluorescent calcium assay) | pEC50 (TRPML2; fluorescent calcium assay) | pEC50 (TRPML3; fluorescent calcium assay) | pEC50 (TRPML1) | pEC50 (TRPML2) | pEC50 (TRPML3) |
| --- | --- | --- | --- | --- | --- | --- |
| C[C@@H]1CN(c2ncnc3c2c(-c2cccnc2)cn3-c2cccc(Cl)c2)[C@@H](C)CN1C(=O)OC(C)(C)C [Compound 131, tert-butyl (2R,5S)-4-(7-(3-chlorophenyl)-5-(pyridin-3-yl)-7H-pyrrolo[2,3-d]pyrimidin-4-yl)-2,5-dimethylpiperazine-1-carboxylate] | > 7.00 | 6.30 to 7.00 | > 7.00 | – | – | – |
| C[C@H]1CN(C(=O)OC(C)(C)C(F)(F)F)CCN1c1ncnc2c1c(-c1cnn(C)c1)cn2-c1cccc(C#N)c1 [Compound 329, 1,1,1-trifluoro-2-methylpropan-2-yl (S)-4-(7-(3-cyanophenyl)-5-(1-methyl-1H-pyrazol-4-yl)-7H-pyrrolo[2,3-d]pyrimidin-4-yl)-3-methylpiperazine-1-carboxylate] | 5.70 to 6.30 | < 5.70 | 6.30 to 7.00 | – | – | – |
| CCc1nccnc1-c1cn(-c2cccc(Cl)c2)c2ncnc(N3CCN(C(=O)OC(C)(C)C)C[C@@H]3C)c12 [Compound 271, tert-butyl (S)-4-(7-(3-chlorophenyl)-5-(3-ethylpyrazin-2-yl)-7H-pyrrolo[2,3-d]pyrimidin-4-yl)-3-methylpiperazine-1-carboxylate] | 6.30 to 7.00 | 6.30 to 7.00 | 6.30 to 7.00 | – | – | – |
| CC(C)(C)OC(=O)N1CCN(c2ncnc3c2c(C(F)(F)F)cn3-c2cc(C#N)ccn2)C2(CC2)C1 [Compound 530, tert-butyl 4-(7-(4-cyanopyridin-2-yl)-5-(trifluoromethyl)-7H-pyrrolo[2,3-d]pyrimidin-4-yl)-4,7-diazaspiro[2.5]octane-7-carboxylate] | – | – | – | > 7.00 | > 7.00 | > 7.00 |
| C[C@H]1CN(C(=O)OC(C)(C)C)CCN1c1ncnc2c1c(N1CCOCC1)cn2-c1cccc(Cl)c1 [Compound 230, tert-Butyl (S)-4-(7-(3-chlorophenyl)-5-morpholino-7H-pyrrolo[2,3-d]pyrimidin-4-yl)-3-methylpiperazine-1-carboxylate] | 6.30 to 7.00 | 6.30 to 7.00 | > 7.00 | – | – | – |
| C[C@@H]1CN(c2cn(-c3cc(C#N)ccn3)c3ncnc(N4CCN(C(=O)OC(C)(C)C)C[C@@H]4C)c23)CCO1 [Compound 417, tert-butyl (S)-4-(7-(4-cyanopyridin-2-yl)-5-((R)-2-methylmorpholino)-7H-pyrrolo[2,3-d]pyrimidin-4-yl)-3-methylpiperazine-1-carboxylate] | > 7.00 | 6.30 to 7.00 | > 7.00 | – | – | – |
| C#Cc1ccnc(-n2cc(C3CC3)c3c(N4C[C@@H](C)N(C(=O)OC(C)(C)C)C[C@@H]4C)ncnc32)c1 [Compound 715, tert-butyl (2R,5S)-4-(5-cyclopropyl-7-(4-ethynylpyridin-2-yl)-7H-pyrrolo[2,3-d]pyrimidin-4-yl)-2,5-dimethylpiperazine-1-carboxylate] | – | – | – | > 7.00 | > 7.00 | > 7.00 |
| C[C@@H]1COCCN1c1cn(-c2cc(C#N)ccn2)c2ncnc(N3CCN(C(=O)OC(C)(C)C)C[C@@H]3C)c12 [Compound 419, tert-butyl (S)-4-(7-(4-cyanopyridin-2-yl)-5-((R)-3-methylmorpholino)-7H-pyrrolo[2,3-d]pyrimidin-4-yl)-3-methylpiperazine-1-carboxylate] | > 7.00 | 6.30 to 7.00 | > 7.00 | – | – | – |
| CC(C)N(C)c1cn(-c2cc(C#N)ccn2)c2ncnc(N3CCN(C(=O)OC(C)(C)C)C[C@@H]3C)c12 [Compound 443, tert-butyl (S)-4-(7-(4-cyanopyridin-2-yl)-5-(isopropyl(methyl)amino)-7H-pyrrolo[2,3-d]pyrimidin-4-yl)-3-methylpiperazine-1-carboxylate] | > 7.00 | > 7.00 | > 7.00 | – | – | – |
| CC(C)OC(=O)N1CCN(c2ncnc3c2c(-c2ccccc2F)cn3-c2cc(C#N)ccn2)[C@@H](C)C1 [Compound 347, isopropyl (S)-4-(7-(4-cyanopyridin-2-yl)-5-(2-fluorophenyl)-7H-pyrrolo[2,3-d]pyrimidin-4-yl)-3-methylpiperazine-1-carboxylate] | > 7.00 | > 7.00 | > 7.00 | – | – | – |
